One compound from publication doi:10.1101/2025.06.03.657755v1 (biorxiv, 2025) can be followed below.

The target in the assay is SINV nsP2 (Sindbis virus, UniProt P03317).

Molecules are shown by their SMILES.

Chain of SINV nsP2 (P03317 541-1347): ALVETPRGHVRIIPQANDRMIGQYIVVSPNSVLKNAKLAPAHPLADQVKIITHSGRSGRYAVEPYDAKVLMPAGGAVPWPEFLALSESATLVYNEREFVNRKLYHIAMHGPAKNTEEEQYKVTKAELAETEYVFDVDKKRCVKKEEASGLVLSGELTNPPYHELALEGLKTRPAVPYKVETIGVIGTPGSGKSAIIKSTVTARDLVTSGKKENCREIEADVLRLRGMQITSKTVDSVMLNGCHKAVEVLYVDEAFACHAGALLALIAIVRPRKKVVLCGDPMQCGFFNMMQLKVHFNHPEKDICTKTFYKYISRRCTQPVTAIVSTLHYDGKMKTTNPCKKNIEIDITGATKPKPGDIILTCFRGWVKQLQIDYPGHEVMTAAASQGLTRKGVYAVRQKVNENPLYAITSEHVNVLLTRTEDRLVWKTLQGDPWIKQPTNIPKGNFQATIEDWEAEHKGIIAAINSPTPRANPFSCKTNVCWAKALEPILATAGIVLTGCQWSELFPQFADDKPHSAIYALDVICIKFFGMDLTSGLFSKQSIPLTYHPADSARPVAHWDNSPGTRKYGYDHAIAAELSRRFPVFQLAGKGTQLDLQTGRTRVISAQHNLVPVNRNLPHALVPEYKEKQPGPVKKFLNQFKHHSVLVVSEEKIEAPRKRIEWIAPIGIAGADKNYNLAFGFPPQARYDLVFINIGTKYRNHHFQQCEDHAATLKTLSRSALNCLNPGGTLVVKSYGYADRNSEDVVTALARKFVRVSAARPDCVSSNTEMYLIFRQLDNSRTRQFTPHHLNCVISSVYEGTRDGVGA

As for `Nc1ncnc2c1ncn2[C@@H]1O[C@H](COP(=O)(O)OP(=O)(O)OP(=O)(O)O)[C@@H](O)[C@H]1O` [ATP], the Km result is listed as “these additions increase the ATPase Km”.
